# In patent EP4745137A1 (Gluetacs Therapeutics (Shanghai) Co., Ltd., priority 2023, dated 2025):
# Tests used:
# Format in all cases: cell-based
# Settings in all cases: 24 hours of compound treatment
# [1] = target: T1, WEE1 (Homo sapiens, UniProt P30291+Q96SW2); assay: Western-blot assay of substrate protein degradation in hPBMCs, WEE1
# T1 construct: endogenous in cells; host or cells: hPBMCs (Milecell Biotechnologies)
# Method: (§1) After 24 hours of compounds treatment, cells were harvested and lysed in RIPA protein lysate containing protease inhibitors on ice for 30 min, followed by centrifugation. The supernatant was aspirated as the extracted total cell protein. The protein concentration of the supernatant was determined using the conventional BCA (Bicinchoninic Acid) assay. • (2) To the collected supernatant, 5X SDS sample loading buffer was added, followed by denaturation at 95°C for 5 minutes. The denatured samples were then separated by SDS-PAGE electrophoresis on a polyacrylamide gel, transferred onto a nitrocellulose membrane (0.45 µm NC membrane), blocked with blocking buffer at room temperature for 1 hour, and subjected to antibody incubation and development procedures according to the antibody manufacturer's instructions (Cell Signaling Technology Company). […]
# (§2) Target protein remaining (%) refers to the percentage of target protein remaining in cells after treatment with protein degrader compounds.
# (§3) Calculation method for target protein remaining (%): Use ImageJ software to measure grayscale values of Western blot bands from drug (protein degrader)-treated samples. The grayscale value of drug-treated bands is divided by that of internal control protein bands, and the resulting quotient is normalized to obtain the relative percentage of remaining target protein after protein degrader treatment. Target protein degradation rate(%) = 1−target protein remaining(%). [formula]
# [2] = target: T2, IKZF1 (Homo sapiens, UniProt Q13422+Q96SW2); assay: Western-blot assay of substrate protein degradation in hPBMCs, IKZF1
# T2 construct: endogenous in cells; host or cells: hPBMCs (Milecell Biotechnologies)
# Method: as §1, §2, §3
# [3] = target: T3, IKZF2 (Homo sapiens, UniProt Q96SW2+Q9UKS7); assay: Western-blot assay of substrate protein degradation in hPBMCs, IKZF2
# T3 construct: endogenous in cells; host or cells: hPBMCs (Milecell Biotechnologies)
# T3 sequence (Q9UKS7 whole entry): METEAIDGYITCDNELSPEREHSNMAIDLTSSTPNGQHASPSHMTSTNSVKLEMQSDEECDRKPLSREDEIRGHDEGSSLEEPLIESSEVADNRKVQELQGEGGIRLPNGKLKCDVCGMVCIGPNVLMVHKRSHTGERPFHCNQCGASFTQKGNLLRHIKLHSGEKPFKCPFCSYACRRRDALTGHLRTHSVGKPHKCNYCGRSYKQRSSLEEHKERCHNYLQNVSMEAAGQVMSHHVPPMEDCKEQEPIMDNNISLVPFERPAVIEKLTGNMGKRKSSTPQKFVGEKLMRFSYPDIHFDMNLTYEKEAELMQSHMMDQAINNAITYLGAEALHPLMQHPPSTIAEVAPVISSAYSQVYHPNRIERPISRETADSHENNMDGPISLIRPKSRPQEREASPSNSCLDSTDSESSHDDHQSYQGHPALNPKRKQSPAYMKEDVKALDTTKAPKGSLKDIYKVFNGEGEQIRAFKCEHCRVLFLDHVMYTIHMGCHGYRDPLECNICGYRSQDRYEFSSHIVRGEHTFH
# T3 sequence (Q96SW2 whole entry): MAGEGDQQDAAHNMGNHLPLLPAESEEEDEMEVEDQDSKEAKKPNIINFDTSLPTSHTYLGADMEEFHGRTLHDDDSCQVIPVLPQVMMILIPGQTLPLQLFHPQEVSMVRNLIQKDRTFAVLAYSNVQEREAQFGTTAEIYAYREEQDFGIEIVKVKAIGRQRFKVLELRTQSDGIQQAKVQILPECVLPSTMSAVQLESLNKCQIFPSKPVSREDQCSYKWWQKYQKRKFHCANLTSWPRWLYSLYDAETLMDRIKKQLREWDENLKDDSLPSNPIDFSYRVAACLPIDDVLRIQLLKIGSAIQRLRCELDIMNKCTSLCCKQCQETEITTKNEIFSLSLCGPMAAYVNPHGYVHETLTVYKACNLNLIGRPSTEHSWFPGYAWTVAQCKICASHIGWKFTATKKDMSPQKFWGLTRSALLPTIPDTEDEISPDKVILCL
# T3 sequence (Q16531 whole entry partner): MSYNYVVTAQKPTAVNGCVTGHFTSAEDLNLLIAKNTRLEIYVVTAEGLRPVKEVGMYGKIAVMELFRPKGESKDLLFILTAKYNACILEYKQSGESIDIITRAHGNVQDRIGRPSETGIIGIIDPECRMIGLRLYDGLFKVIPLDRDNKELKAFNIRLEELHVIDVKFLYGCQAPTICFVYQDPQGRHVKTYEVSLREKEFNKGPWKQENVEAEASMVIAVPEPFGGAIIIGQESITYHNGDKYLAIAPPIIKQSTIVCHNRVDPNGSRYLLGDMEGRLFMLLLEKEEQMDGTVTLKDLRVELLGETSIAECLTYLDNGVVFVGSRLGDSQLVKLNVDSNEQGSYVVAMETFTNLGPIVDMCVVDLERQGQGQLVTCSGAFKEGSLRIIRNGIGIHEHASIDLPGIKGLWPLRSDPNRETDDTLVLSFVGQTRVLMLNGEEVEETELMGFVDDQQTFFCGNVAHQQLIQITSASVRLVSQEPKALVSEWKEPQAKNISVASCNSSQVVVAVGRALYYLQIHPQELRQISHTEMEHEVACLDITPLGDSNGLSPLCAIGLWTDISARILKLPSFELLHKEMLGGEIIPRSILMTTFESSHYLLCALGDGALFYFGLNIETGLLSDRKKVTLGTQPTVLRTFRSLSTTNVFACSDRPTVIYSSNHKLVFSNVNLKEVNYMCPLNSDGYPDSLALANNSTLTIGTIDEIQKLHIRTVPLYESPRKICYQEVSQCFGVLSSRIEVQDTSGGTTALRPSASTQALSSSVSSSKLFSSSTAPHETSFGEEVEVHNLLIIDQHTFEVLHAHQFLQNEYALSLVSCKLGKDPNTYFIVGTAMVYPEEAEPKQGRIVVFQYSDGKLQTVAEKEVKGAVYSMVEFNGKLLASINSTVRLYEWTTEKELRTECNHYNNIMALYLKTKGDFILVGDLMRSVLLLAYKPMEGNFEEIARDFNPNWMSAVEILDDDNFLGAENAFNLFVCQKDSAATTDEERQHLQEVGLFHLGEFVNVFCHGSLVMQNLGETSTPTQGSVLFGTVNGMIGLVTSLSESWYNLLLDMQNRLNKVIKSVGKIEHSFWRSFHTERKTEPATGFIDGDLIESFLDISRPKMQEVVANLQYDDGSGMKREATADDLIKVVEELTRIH
# Method: as §1, §2, §3
# [4] = target: T4, IKZF3 (Homo sapiens, UniProt Q96SW2+Q9UKT9); assay: Western-blot assay of substrate protein degradation in hPBMCs, IKZF3
# T4 construct: endogenous in cells; host or cells: hPBMCs (Milecell Biotechnologies)
# T4 sequence (Q9UKT9 whole entry): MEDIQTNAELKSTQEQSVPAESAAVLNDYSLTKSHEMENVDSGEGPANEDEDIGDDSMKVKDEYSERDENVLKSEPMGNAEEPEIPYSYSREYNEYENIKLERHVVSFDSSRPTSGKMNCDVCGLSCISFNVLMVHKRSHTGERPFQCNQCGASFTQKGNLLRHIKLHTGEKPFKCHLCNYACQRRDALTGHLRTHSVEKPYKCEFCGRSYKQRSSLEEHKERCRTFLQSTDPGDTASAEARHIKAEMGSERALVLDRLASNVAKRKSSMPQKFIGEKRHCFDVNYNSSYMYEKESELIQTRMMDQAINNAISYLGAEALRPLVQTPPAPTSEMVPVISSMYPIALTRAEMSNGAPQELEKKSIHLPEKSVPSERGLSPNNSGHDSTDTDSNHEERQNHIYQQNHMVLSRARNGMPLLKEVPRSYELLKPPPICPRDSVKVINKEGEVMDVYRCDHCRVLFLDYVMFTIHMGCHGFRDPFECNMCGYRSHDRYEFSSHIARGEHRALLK
# T4 sequence (Q96SW2 whole entry): as the sequence (Q96SW2 whole entry) above
# T4 sequence (Q16531 whole entry partner): as the sequence (Q16531 whole entry partner) above
# Method: as §1, §2, §3
# [5] = target: T5, CK1α (Homo sapiens, UniProt P48729+Q96SW2); assay: Western-blot assay of substrate protein degradation in hPBMCs, CK1α
# T5 construct: endogenous in cells; host or cells: hPBMCs (Milecell Biotechnologies)
# T5 sequence (P48729 whole entry): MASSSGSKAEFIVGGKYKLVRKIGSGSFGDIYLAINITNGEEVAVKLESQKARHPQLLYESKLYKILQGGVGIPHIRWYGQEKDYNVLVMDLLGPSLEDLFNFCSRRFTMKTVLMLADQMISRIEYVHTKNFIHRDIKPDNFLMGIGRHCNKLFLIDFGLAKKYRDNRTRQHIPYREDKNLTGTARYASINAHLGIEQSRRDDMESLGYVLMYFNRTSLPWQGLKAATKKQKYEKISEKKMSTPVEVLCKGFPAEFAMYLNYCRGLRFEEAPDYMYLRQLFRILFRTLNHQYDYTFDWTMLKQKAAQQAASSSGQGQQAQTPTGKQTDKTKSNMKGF
# T5 sequence (Q96SW2 whole entry): as the sequence (Q96SW2 whole entry) above
# T5 sequence (Q16531 whole entry partner): as the sequence (Q16531 whole entry partner) above
# Method: as §1, §2, §3
# [6] = target: T6, GSPT1 (Homo sapiens, UniProt P15170+Q96SW2); assay: Western-blot assay of substrate protein degradation in hPBMCs, GSPT1
# T6 construct: endogenous in cells; host or cells: hPBMCs (Milecell Biotechnologies)
# T6 sequence (P15170 whole entry): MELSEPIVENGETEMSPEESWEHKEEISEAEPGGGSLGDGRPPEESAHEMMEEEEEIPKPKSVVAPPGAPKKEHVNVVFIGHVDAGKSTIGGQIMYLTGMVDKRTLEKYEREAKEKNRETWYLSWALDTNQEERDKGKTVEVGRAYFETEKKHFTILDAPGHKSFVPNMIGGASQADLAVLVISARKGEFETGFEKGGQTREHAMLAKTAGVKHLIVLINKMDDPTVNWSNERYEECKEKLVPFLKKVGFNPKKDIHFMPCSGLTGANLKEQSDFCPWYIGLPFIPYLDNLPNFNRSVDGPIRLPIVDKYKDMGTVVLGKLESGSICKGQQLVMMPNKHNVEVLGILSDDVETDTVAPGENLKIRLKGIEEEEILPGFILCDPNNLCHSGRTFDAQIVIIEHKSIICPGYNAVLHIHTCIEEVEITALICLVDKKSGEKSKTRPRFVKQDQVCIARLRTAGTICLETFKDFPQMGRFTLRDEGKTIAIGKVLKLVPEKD
# T6 sequence (Q96SW2 whole entry): as the sequence (Q96SW2 whole entry) above
# T6 sequence (Q16531 whole entry partner): as the sequence (Q16531 whole entry partner) above
# Method: as §1, §2, §3
# [7] = 50 nM and 500 nM tested (concentration behind the class not stated)
# [8] = compounds tested at 50 nM and 500 nM (concentration of the table not stated)
# T1 sequence (P30291 whole entry): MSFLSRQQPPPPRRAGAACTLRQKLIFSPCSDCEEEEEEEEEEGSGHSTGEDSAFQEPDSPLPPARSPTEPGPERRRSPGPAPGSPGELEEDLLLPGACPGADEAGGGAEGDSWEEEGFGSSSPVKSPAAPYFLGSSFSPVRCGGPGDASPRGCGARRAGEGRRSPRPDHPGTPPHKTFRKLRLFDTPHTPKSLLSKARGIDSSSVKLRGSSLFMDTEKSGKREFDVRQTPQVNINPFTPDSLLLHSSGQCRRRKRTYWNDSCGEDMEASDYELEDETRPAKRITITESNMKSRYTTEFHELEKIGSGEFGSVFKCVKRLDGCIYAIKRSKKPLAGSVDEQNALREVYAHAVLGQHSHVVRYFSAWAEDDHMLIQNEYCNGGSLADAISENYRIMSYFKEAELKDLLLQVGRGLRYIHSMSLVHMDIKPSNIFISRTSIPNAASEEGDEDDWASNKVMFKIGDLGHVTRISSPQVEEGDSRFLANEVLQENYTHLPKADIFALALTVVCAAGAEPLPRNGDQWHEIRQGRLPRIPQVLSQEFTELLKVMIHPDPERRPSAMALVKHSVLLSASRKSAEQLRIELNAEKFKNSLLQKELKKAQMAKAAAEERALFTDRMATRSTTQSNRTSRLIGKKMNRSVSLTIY
# T1 sequence (Q96SW2 whole entry): as the sequence (Q96SW2 whole entry) above
# T1 sequence (Q16531 whole entry partner): as the sequence (Q16531 whole entry partner) above
compound,measurement,setting,value
"Cc1cc(N2CCN(Cc3ccc4c(c3)C(=O)N(C3CCC(=O)NC3=O)C4=O)CC2)ccn1 (stereo not drawn) [GT-06554, 2-(2,6-dioxopiperidin-3-yl)-5-((4-(2-methylpyridin-4-yl)piperazin-1-yl)methyl)isoindoline-1,3-dione]",Weel substrate protein remaining %,[1]; [7],B (80%< substrate protein remaining %≤ 100%)
same,IKZF 1 substrate protein remaining %,[2]; [7],B (80%< substrate protein remaining %≤ 100%)
same,IKZF2 substrate protein remaining %,[3]; [7],A (0% ≤ substrate protein remaining % ≤ 80%)
same,IKZF3 substrate protein remaining %,[4]; [7],B (80%< substrate protein remaining %≤ 100%)
same,CK1a substrate protein remaining %,[5]; [7],B (80%< substrate protein remaining %≤ 100%)
same,GSPT1 substrate protein remaining %,[6]; [7],A (0% ≤ substrate protein remaining % ≤ 80%)
"O=C1CCC(N2C(=O)c3ccc(CN4CC5CCC(C4)N5c4cccc(Cl)c4Cl)cc3C2=O)C(=O)N1 (stereo not drawn) [GT-06693, 5-((8-(2,3-dichlorophenyl)-3,8-diazabicyclo[3.2.1]octan-3-yl)methyl)-2-(2,6-dioxopiperidin-3-yl)isoindoline-1,3-dione]",Weel substrate protein remaining %,[1]; [7],A (0% ≤ substrate protein remaining % ≤ 80%)
same,IKZF 1 substrate protein remaining %,[2]; [7],B (80%< substrate protein remaining %≤ 100%)
same,IKZF2 substrate protein remaining %,[3]; [7],A (0% ≤ substrate protein remaining % ≤ 80%)
same,IKZF3 substrate protein remaining %,[4]; [7],B (80%< substrate protein remaining %≤ 100%)
same,CK1a substrate protein remaining %,[5]; [7],B (80%< substrate protein remaining %≤ 100%)
same,GSPT1 substrate protein remaining %,[6]; [7],A (0% ≤ substrate protein remaining % ≤ 80%)
"Cc1ccsc1C1CCN(Cc2ccc3c(c2)C(=O)N(C2CCC(=O)NC2=O)C3=O)CC1 (stereo not drawn) [GT-06280, 2-(2,6-dioxopiperidin-3-yl)-5-((4-(3-methylthiophen-2-yl)piperidin-1-yl)methyl)isoindoline-1,3-dione]",Weel substrate protein remaining %,[1]; [7],B (80%< substrate protein remaining %≤ 100%)
same,IKZF 1 substrate protein remaining %,[2]; [7],B (80%< substrate protein remaining %≤ 100%)
same,IKZF2 substrate protein remaining %,[3]; [7],B (80%< substrate protein remaining %≤ 100%)
same,IKZF3 substrate protein remaining %,[4]; [7],B (80%< substrate protein remaining %≤ 100%)
same,CK1a substrate protein remaining %,[5]; [7],B (80%< substrate protein remaining %≤ 100%)
same,GSPT1 substrate protein remaining %,[6]; [7],A (0% ≤ substrate protein remaining % ≤ 80%)
"O=C1CCC(N2C(=O)c3ccc(CN4CCC(c5ccco5)CC4)cc3C2=O)C(=O)N1 (stereo not drawn) [GT-06284, 2-(2,6-dioxopiperidin-3-yl)-5-((4-(furan-2-yl)piperidin-1-yl)methyl)isoindoline-1,3-dione]",Weel substrate protein remaining %,[1]; [7],B (80%< substrate protein remaining %≤ 100%)
same,IKZF 1 substrate protein remaining %,[2]; [7],B (80%< substrate protein remaining %≤ 100%)
same,IKZF2 substrate protein remaining %,[3]; [7],B (80%< substrate protein remaining %≤ 100%)
same,IKZF3 substrate protein remaining %,[4]; [7],B (80%< substrate protein remaining %≤ 100%)
same,CK1a substrate protein remaining %,[5]; [7],B (80%< substrate protein remaining %≤ 100%)
same,GSPT1 substrate protein remaining %,[6]; [7],A (0% ≤ substrate protein remaining % ≤ 80%)
"O=C1CCC(N2C(=O)c3ccc(CN4CCN(c5ccc(Cl)cn5)CC4)cc3C2=O)C(=O)N1 (stereo not drawn) [GT-06524, 5-((4-(5-chloropyridin-2-yl)piperazin-1-yl)methyl)-2-(2,6-dioxopiperidin-3-yl)isoindoline-1,3-dione]",Weel substrate protein remaining %,[1]; [7],B (80%< substrate protein remaining %≤ 100%)
same,IKZF 1 substrate protein remaining %,[2]; [7],A (0% ≤ substrate protein remaining % ≤ 80%)
same,IKZF2 substrate protein remaining %,[3]; [7],B (80%< substrate protein remaining %≤ 100%)
same,IKZF3 substrate protein remaining %,[4]; [7],B (80%< substrate protein remaining %≤ 100%)
same,CK1a substrate protein remaining %,[5]; [7],B (80%< substrate protein remaining %≤ 100%)
same,GSPT1 substrate protein remaining %,[6]; [7],A (0% ≤ substrate protein remaining % ≤ 80%)
"O=C1CCC(N2Cc3c(CN4CCn5c(nnc5C(F)(F)F)C4)cccc3C2=O)C(=O)N1 (stereo not drawn) [GT-04920, 3-(1-oxo-4-((3-(trifluoromethyl)-5,6-dihydro-[1,2,4]triazolo[4,3-a]pyrazin-7(8H)-yl)methyl)isoindolin-2-yl)piperidine-2,6-dione]",Weel substrate protein remaining %,[1]; [8],A (0% ≤ substrate protein remaining % ≤ 80%)
same,IKZF 1 substrate protein remaining %,[2]; [8],A (0% ≤ substrate protein remaining % ≤ 80%)
same,IKZF2 substrate protein remaining %,[3]; [8],A (0% ≤ substrate protein remaining % ≤ 80%)
same,IKZF3 substrate protein remaining %,[4]; [8],A (0% ≤ substrate protein remaining % ≤ 80%)
same,CK1a substrate protein remaining %,[5]; [8],B (80%< substrate protein remaining %≤ 100%)
same,GSPT1 substrate protein remaining %,[6]; [8],A (0% ≤ substrate protein remaining % ≤ 80%)
"Cc1ccc(C2CCN(Cc3ccc4c(c3)C(=O)N(C3CCC(=O)NC3=O)C4=O)CC2)s1 (stereo not drawn) [GT-06262, 2-(2,6-dioxopiperidin-3-yl)-5-((4-(5-methylthiophen-2-yl)piperidin-1-yl)methyl)isoindoline-1,3-dione]",Weel substrate protein remaining %,[1]; [7],B (80%< substrate protein remaining %≤ 100%)
same,IKZF 1 substrate protein remaining %,[2]; [7],B (80%< substrate protein remaining %≤ 100%)
same,IKZF2 substrate protein remaining %,[3]; [7],A (0% ≤ substrate protein remaining % ≤ 80%)
same,IKZF3 substrate protein remaining %,[4]; [7],B (80%< substrate protein remaining %≤ 100%)
same,CK1a substrate protein remaining %,[5]; [7],A (0% ≤ substrate protein remaining % ≤ 80%)
same,GSPT1 substrate protein remaining %,[6]; [7],A (0% ≤ substrate protein remaining % ≤ 80%)
"O=C1CCC(N2C(=O)c3ccc(CN4CCC(N5CCOc6cc(F)ccc65)CC4)cc3C2=O)C(=O)N1 (stereo not drawn) [GT-06235, 2-(2,6-dioxopiperidin-3-yl)-5-((4-(7-fluoro-2,3-dihydro-4H-benzo[b][1,4]oxazin-4-yl)piperidin-1-yl)methyl)isoindoline-1,3-dione]",Weel substrate protein remaining %,[1]; [8],B (80%< substrate protein remaining %≤ 100%)
same,IKZF 1 substrate protein remaining %,[2]; [8],B (80%< substrate protein remaining %≤ 100%)
same,IKZF2 substrate protein remaining %,[3]; [8],B (80%< substrate protein remaining %≤ 100%)
same,IKZF3 substrate protein remaining %,[4]; [8],B (80%< substrate protein remaining %≤ 100%)
same,CK1a substrate protein remaining %,[5]; [8],B (80%< substrate protein remaining %≤ 100%)
same,GSPT1 substrate protein remaining %,[6]; [8],A (0% ≤ substrate protein remaining % ≤ 80%)
"O=C1CCC(N2C(=O)c3ccc(CNC45CC6CC(CC(C6)C4)C5)cc3C2=O)C(=O)N1 (stereo not drawn) [GT-06912, 5-((((3s,5s,7s)-adamantan-1-yl)amino)methyl)-2-(2,6-dioxopiperidin-3-yl)isoindoline-1,3-dione]",Weel substrate protein remaining %,[1]; [7],A (0% ≤ substrate protein remaining % ≤ 80%)
same,IKZF 1 substrate protein remaining %,[2]; [7],A (0% ≤ substrate protein remaining % ≤ 80%)
same,IKZF2 substrate protein remaining %,[3]; [7],A (0% ≤ substrate protein remaining % ≤ 80%)
same,IKZF3 substrate protein remaining %,[4]; [7],B (80%< substrate protein remaining %≤ 100%)
same,CK1a substrate protein remaining %,[5]; [7],A (0% ≤ substrate protein remaining % ≤ 80%)
same,GSPT1 substrate protein remaining %,[6]; [7],A (0% ≤ substrate protein remaining % ≤ 80%)
"O=C1CCC(N2C(=O)c3ccc(CN4CCN(c5cc(Cl)ccc5Cl)CC4)cc3C2=O)C(=O)N1 (stereo not drawn) [GT-06356, 5-((4-(2,5-dichlorophenyl)piperazin-1-yl)methyl)-2-(2,6-dioxopiperidin-3-yl)isoindoline-1,3-dione]",Weel substrate protein remaining %,[1]; [7],B (80%< substrate protein remaining %≤ 100%)
same,IKZF 1 substrate protein remaining %,[2]; [7],B (80%< substrate protein remaining %≤ 100%)
same,IKZF2 substrate protein remaining %,[3]; [7],B (80%< substrate protein remaining %≤ 100%)
same,IKZF3 substrate protein remaining %,[4]; [7],B (80%< substrate protein remaining %≤ 100%)
same,CK1a substrate protein remaining %,[5]; [7],B (80%< substrate protein remaining %≤ 100%)
same,GSPT1 substrate protein remaining %,[6]; [7],A (0% ≤ substrate protein remaining % ≤ 80%)
"O=C1CCC(N2C(=O)c3ccc(CN4CCC(c5cccc(F)c5F)CC4)cc3C2=O)C(=O)N1 (stereo not drawn) [GT-06359, 5-((4-(2,3-difluorophenyl)piperidin-1-yl)methyl)-2-(2,6-dioxopiperidin-3-yl)isoindoline-1,3-dione]",Weel substrate protein remaining %,[1]; [7],A (0% ≤ substrate protein remaining % ≤ 80%)
same,IKZF 1 substrate protein remaining %,[2]; [7],A (0% ≤ substrate protein remaining % ≤ 80%)
same,IKZF2 substrate protein remaining %,[3]; [7],A (0% ≤ substrate protein remaining % ≤ 80%)
same,IKZF3 substrate protein remaining %,[4]; [7],B (80%< substrate protein remaining %≤ 100%)
same,CK1a substrate protein remaining %,[5]; [7],B (80%< substrate protein remaining %≤ 100%)
same,GSPT1 substrate protein remaining %,[6]; [7],A (0% ≤ substrate protein remaining % ≤ 80%)
"O=C1CCC(N2C(=O)c3ccc(CN4CCN(c5ccc(Cl)cc5)CC4)cc3C2=O)C(=O)N1 (stereo not drawn) [GT-06275, 5-((4-(4-chlorophenyl)piperazin-1-yl)methyl)-2-(2,6-dioxopiperidin-3-yl)isoindoline-1,3-dione]",Weel substrate protein remaining %,[1]; [7],B (80%< substrate protein remaining %≤ 100%)
same,IKZF 1 substrate protein remaining %,[2]; [7],B (80%< substrate protein remaining %≤ 100%)
same,IKZF2 substrate protein remaining %,[3]; [7],B (80%< substrate protein remaining %≤ 100%)
same,IKZF3 substrate protein remaining %,[4]; [7],B (80%< substrate protein remaining %≤ 100%)
same,CK1a substrate protein remaining %,[5]; [7],B (80%< substrate protein remaining %≤ 100%)
same,GSPT1 substrate protein remaining %,[6]; [7],A (0% ≤ substrate protein remaining % ≤ 80%)
